Laboratory results taken from ChEMBL document CHEMBL5137046, “Discovery of novel 2,3-dihydro-1H-inden-1-ones as dual PDE4/AChE inhibitors with more potency against neuroinflammation for the treatment of Alzheimer's disease” (Eur J Med Chem, 2022).
The source made the active and inactive calls. The rule behind the calls is not given here.

What was measured:
Acetylcholinesterase = Acetylcholinesterase (Electrophorus electricus, UniProt O42275); assay: Inhibition of electric eel AChE using acetylthiocholine iodide as substrate preincubated with enzyme for 20 mins followed by substrate addition and measured after 10 mins by Ellman's method
[1] = target: T1, 3',5'-cyclic-AMP phosphodiesterase 4D (Homo sapiens, UniProt Q08499); assay: Inhibition of PDE4D7 (unknown origin) at 10 uM
[2] = target: T1, 3',5'-cyclic-AMP phosphodiesterase 4D; assay: Inhibition of PDE4D7 (unknown origin)
[3] = target: Acetylcholinesterase (Electrophorus electricus) (UniProt O42275); assay: Inhibition of electric eel AChE using acetylthiocholine iodide as substrate at 10 uM preincubated with enzyme for 20 mins followed by substrate addition and measured after 10 mins by Ellman's method; conditions: time 30.0 min
[4] = target: Acetylcholinesterase (Electrophorus electricus) (UniProt O42275); assay: Potency index, ratio of donepezil IC50 to test compound IC50 for inhibition of electric eel AChE using acetylthiocholine iodide as substrate preincubated with enzyme for 20 mins followed by substrate addition and measured after 10 mins by Ellman's method; conditions: time 30.0 min
Cholinesterase = Cholinesterase (Equus caballus, UniProt P81908); assay: Inhibition of horse serum BuChE using butyrylthiocholine iodide as substrate preincubated with enzyme for 20 mins followed by substrate addition and measured after 10 mins by Ellman's method; assay type: cell-free
[5] = target: Dual specificity calcium/calmodulin-dependent 3',5'-cyclic nucleotide phosphodiesterase 1A (Homo sapiens, UniProt P54750); assay: Inhibition of PDE1A (unknown origin)
[6] = target: cGMP-dependent 3',5'-cyclic phosphodiesterase (Homo sapiens, UniProt O00408); assay: Inhibition of PDE2A (unknown origin)
[7] = target: cGMP-inhibited 3',5'-cyclic phosphodiesterase 3B (Homo sapiens, UniProt Q13370); assay: Inhibition of PDE3B (unknown origin)
[8] = target: cGMP-specific 3',5'-cyclic phosphodiesterase (Homo sapiens, UniProt O76074); assay: Inhibition of PDE5A (unknown origin)
[9] = Inhibition of […] (unknown origin); parameters: species or system Homo sapiens
[10] = target: High affinity 3',5'-cyclic-AMP phosphodiesterase 7A (Homo sapiens, UniProt Q13946); assay: Inhibition of PDE7A (unknown origin)
[11] = target: High affinity cAMP-specific and IBMX-insensitive 3',5'-cyclic phosphodiesterase 8A (Homo sapiens, UniProt O60658); assay: Inhibition of PDE8A1 (unknown origin)
[12] = target: High affinity cGMP-specific 3',5'-cyclic phosphodiesterase 9A (Homo sapiens, UniProt O76083); assay: Inhibition of PDE9A2 (unknown origin)
[13] = Neurotoxicity against rat PC-12 cells assessed as reduction in cell viability up to 20 uM incubated for 24 hrs by MTT assay; assay type: toxicity, cell-based; conditions: pc-12, 24 h
PC-12 [14] = assay: Neuroprotective activity against rat PC-12 cells assessed as inhibition of Abeta(25-35)-induced cytotoxicity by measuring increase in cell viability at 10 to 20 uM incubated for 24 hrs by MTT assay; assay type: functional, cell-based; conditions: dose 10-20 µM
BV-2 [15] = assay: Cytotoxicity against mouse BV-2 cells assessed as reduction in cell viability at 20 uM by MTT assay; assay type: toxicity, cell-based; conditions: bv-2, 20 µM
BV-2 [16] = assay: Anti-neuroinflammatory activity against LPS-stimulated mouse BV-2 cells assessed as reduction in TNF-alpha production pretreated for 1 hr with compound followed by LPS treatment for 24 hrs by ELISA; assay type: functional, cell-based; conditions: dose 5-20 µM, time 25.0 hrs, DDE = dose-dependent effect
BV-2 [17] = assay: Anti-neuroinflammatory activity against LPS-stimulated mouse BV-2 cells assessed as reduction in TNF-alpha production at 20 uM pretreated for 1 hr with compound followed by LPS treatment for 24 hrs by ELISA; assay type: functional, cell-based; conditions: time 25.0 hrs
Mus musculus [18] = assay: In vivo inhibition of AChE in hippocampus of aggregated Abeta(25-35)-induced Alzheimer's disease C57BL/6 mouse model at 2 mg/kg, iv measured after 2 hrs by Ellman's method; assay type: functional, organism-based
Mus musculus [19] = assay: Anti-neuroinflammatory activity against aggregated Abeta(25-35)-induced Alzheimer's disease C57BL/6 mouse model assessed as inhibition of TNF-alpha production in hippocampus at 2 mg/kg, iv measured after 2 hrs by ELISA; assay type: functional, organism-based
[20] = target: Acetylcholinesterase (Electrophorus electricus) (UniProt O42275); assay: Inhibition of electric eel AChE using acetylthiocholine iodide as substrate at 1 uM preincubated with enzyme for 20 mins followed by substrate addition and measured after 10 mins by Ellman's method; conditions: time 30.0 min
PC-12 [21] = assay: Neuroprotective activity against rat PC-12 cells assessed as inhibition of Abeta(25-35)-induced cytotoxicity by measuring increase in cell viability at 10 uM incubated for 24 hrs by MTT assay; assay type: functional, cell-based
Mus musculus [22] = assay: Anti-neuroinflammatory activity against aggregated Abeta(25-35)-induced Alzheimer's disease C57BL/6 mouse model assessed as inhibition of TNF-alpha production in hippocampus at 1 mg/kg, iv measured after 2 hrs in presence of 1 mg/kg, iv rolipram by ELISA; assay type: functional, organism-based

T1 sequence (Q08499 whole entry): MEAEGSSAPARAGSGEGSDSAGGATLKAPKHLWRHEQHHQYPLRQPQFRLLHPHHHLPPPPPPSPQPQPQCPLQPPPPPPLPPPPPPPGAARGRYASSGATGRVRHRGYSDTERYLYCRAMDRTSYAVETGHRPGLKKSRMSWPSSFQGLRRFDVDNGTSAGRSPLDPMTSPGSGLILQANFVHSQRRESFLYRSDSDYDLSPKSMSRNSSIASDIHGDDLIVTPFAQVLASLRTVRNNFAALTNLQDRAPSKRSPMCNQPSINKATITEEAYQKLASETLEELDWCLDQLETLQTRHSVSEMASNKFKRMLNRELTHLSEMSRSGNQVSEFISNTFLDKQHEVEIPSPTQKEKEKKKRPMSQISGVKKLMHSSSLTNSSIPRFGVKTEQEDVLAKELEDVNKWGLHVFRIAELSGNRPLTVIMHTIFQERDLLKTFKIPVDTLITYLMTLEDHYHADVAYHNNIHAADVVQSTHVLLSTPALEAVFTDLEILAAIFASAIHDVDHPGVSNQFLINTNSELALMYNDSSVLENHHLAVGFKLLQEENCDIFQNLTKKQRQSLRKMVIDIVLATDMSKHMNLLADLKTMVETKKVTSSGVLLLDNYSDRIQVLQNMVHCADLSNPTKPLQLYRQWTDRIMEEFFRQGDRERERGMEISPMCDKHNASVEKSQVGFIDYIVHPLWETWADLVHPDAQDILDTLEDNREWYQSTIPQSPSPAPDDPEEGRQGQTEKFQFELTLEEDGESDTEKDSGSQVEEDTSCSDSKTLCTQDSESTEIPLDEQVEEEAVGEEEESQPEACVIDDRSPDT
Acetylcholinesterase (Electrophorus electricus), sequence (O42275 24-633 limits assumed): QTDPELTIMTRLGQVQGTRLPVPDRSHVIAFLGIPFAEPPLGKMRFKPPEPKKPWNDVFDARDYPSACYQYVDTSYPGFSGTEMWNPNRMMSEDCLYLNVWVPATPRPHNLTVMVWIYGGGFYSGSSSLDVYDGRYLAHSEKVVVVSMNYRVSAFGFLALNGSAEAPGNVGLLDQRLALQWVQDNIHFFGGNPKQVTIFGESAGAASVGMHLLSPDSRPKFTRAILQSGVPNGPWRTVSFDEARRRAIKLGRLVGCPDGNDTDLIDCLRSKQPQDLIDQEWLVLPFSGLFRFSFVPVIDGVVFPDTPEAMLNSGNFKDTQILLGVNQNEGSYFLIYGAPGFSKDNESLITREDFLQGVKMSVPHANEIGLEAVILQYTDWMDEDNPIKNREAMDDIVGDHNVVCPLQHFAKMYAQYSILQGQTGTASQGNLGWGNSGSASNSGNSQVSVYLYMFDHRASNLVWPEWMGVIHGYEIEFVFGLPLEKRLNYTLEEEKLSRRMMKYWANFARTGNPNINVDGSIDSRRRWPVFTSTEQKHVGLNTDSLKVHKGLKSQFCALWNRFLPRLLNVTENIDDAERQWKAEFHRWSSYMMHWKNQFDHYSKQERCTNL
Acetylcholinesterase, sequence (O42275 whole entry): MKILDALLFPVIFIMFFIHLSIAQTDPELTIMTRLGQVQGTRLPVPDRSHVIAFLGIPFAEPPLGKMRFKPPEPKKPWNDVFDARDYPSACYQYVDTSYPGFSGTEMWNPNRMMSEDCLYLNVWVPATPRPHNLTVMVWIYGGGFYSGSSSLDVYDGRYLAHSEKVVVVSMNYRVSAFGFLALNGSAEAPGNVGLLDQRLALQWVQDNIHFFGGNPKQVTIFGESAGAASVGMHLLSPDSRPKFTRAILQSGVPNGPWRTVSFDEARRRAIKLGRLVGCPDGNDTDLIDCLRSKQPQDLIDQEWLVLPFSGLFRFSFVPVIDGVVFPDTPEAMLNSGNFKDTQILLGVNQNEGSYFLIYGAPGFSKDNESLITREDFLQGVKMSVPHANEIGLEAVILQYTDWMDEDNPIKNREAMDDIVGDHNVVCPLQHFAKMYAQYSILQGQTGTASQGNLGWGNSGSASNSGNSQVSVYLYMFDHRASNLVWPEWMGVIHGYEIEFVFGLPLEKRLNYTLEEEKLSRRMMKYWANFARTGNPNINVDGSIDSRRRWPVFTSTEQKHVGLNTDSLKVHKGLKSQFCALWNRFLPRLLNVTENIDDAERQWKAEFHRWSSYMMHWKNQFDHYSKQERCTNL
Cholinesterase, sequence (P81908 whole entry): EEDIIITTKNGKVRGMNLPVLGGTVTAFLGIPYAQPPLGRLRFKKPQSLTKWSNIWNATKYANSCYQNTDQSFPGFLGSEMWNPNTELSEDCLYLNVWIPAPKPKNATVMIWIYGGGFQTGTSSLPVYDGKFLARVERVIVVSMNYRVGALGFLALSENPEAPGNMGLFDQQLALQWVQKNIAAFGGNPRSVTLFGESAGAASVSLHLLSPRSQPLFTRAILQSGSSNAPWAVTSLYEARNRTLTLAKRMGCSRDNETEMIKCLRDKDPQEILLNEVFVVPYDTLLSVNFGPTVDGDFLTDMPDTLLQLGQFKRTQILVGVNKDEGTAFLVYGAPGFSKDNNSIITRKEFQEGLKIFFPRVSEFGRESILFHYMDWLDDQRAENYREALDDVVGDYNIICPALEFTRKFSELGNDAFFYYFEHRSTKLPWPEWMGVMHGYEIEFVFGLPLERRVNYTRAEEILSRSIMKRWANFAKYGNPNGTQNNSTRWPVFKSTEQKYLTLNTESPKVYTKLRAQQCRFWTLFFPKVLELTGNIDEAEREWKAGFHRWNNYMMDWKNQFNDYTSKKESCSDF
cGMP-dependent 3',5'-cyclic phosphodiesterase, sequence (O00408 whole entry): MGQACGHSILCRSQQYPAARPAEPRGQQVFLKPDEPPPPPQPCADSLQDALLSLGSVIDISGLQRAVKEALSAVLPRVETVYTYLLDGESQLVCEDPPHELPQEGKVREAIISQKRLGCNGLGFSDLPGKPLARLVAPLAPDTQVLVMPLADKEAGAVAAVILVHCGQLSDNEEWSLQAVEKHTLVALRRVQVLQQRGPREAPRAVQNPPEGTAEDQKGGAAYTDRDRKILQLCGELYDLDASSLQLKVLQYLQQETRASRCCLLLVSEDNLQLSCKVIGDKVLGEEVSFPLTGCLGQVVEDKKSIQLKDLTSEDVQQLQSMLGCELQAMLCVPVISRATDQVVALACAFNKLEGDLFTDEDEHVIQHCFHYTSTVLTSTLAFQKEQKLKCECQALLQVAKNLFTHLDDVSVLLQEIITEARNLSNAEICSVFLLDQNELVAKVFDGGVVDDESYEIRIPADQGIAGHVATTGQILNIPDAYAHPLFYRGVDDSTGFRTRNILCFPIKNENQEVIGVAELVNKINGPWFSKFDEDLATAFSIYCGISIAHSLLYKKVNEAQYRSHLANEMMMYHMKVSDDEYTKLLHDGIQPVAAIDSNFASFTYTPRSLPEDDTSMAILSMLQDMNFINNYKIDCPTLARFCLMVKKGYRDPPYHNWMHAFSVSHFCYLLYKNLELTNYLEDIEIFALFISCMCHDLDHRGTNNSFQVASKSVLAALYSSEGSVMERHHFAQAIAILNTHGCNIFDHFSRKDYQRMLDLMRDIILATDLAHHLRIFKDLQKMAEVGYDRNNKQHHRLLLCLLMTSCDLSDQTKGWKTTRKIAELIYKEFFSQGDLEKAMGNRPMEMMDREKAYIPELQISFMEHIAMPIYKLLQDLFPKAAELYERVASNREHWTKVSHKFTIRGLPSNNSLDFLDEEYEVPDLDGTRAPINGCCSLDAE
cGMP-inhibited 3',5'-cyclic phosphodiesterase 3B, sequence (Q13370 whole entry): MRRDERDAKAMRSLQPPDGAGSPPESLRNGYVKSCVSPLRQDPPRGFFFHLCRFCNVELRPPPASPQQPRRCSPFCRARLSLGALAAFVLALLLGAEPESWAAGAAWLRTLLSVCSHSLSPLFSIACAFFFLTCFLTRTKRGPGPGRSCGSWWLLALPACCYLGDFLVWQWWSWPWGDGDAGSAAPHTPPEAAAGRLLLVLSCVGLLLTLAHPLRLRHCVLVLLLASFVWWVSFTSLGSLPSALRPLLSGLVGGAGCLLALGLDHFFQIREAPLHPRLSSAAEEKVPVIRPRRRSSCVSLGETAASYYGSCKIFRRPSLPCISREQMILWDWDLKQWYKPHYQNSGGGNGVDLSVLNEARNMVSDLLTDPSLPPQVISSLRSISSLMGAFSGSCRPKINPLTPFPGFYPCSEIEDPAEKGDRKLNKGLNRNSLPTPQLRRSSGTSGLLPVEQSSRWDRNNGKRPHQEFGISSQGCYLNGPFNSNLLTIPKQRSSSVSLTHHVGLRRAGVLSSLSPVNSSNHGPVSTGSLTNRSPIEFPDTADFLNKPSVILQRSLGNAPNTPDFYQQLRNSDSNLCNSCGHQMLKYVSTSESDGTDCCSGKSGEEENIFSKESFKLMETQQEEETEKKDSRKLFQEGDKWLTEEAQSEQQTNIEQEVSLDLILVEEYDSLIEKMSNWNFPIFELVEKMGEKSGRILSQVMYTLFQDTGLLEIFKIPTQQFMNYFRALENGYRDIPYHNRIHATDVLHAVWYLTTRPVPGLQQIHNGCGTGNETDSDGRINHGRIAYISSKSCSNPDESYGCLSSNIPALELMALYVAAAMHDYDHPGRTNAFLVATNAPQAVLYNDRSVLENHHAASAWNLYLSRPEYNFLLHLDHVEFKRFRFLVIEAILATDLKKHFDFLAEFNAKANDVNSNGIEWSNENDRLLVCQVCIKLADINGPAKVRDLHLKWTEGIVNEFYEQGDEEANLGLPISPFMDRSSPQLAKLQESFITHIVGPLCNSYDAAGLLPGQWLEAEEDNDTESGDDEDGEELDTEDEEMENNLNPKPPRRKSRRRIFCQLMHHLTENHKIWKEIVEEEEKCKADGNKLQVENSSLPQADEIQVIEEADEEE

Work on COc1cc2c(cc1OC1CCCC1)CC(CC1CCN(Cc3ccccc3)CC1)C2=O (stereo not given) yielded an IC50 (Acetylcholinesterase) of 0.21 µM and an inhibition [1] of less than 10%.

COc1cc2c(cc1OC1CCCC1)C(=O)/C(=C/c1ccncc1)C2 gave an IC50 (Acetylcholinesterase) of 11.4 µM, an IC50 [2] of 3.1 µM and an inhibition [3] of 51%.

With COc1cc2c(cc1OC1CCCC1)C(=O)C(Cc1ccncc1)C2 (stereo not given) the IC50 (Acetylcholinesterase) was 55.9 µM, the IC50 [2] was 3.4 µM and the inhibition [3] was 15%.

COc1cc2c(cc1OC1CCCC1)C(=O)C(Cc1cccnc1)C2 (stereo not given) showed an IC50 [2] of 23 µM, an inhibition [1] of 34% and an inhibition [3] of 26%.

For COc1cc2c(cc1OC1CCCC1)CC(Cc1ccncc1)C2=O (stereo not given), the IC50 (Acetylcholinesterase) was 30.5 µM, the IC50 [2] was 5.3 µM and the inhibition [3] was 27%.

COc1cc2c(cc1OC1CCCC1)C(=O)C(CC1CCNCC1)C2 (stereo not given) showed an inhibition [1] of less than 10% and an inhibition [3] of 11%.

COc1ccc(CC2Cc3cc(OC)c(OCCN4CCCCC4)cc3C2=O)cc1 (stereo not given) showed an IC50 (Acetylcholinesterase) of 0.81 µM and an inhibition [1] of less than 10%.

In the case of COc1cc2c(cc1OCC(C)C)C(=O)C(CC1CCNCC1)C2 (stereo not given), the inhibition [1] is reported as less than 10% and the inhibition [3] is reported as 12%.

Compound COc1cc2c(cc1OCC1CC1)C(=O)C(CC1CCN(Cc3ccccc3)CC1)C2 (stereo not given) has an IC50 (Acetylcholinesterase) of 0.045 µM and an inhibition [1] of less than 10%.

COc1cc2c(cc1OCCN1CCCCC1)C(=O)C(Cc1cccnc1)C2 (stereo not given) gave an IC50 (Acetylcholinesterase) of 0.28 µM, an IC50 [2] of 1.88 µM and a Ratio IC50 [4] of 19. It also gave an IC50 (Cholinesterase) of 36.9 µM, an IC50 [5] greater than 50 µM and an IC50 [6] greater than 50 µM. For the same compound, the IC50 [7] was greater than 50 µM, the IC50 [8] was greater than 50 µM and the IC50 [9] was greater than 50 µM. For the same compound, the IC50 [10] was greater than 50 µM, the IC50 [11] was greater than 50 µM and the IC50 [12] was greater than 50 µM. For the same compound, the Activity [13] was “Non-Toxic”, the Activity (PC-12 [14]) was “Active” and the Activity (BV-2 [15]) was “Non-Toxic”. For the same compound, the Activity (BV-2 [16]) was “Dde”, the Activity (BV-2 [17]) was “Active” and the inhibition (Mus musculus [18]) was “Active”. The Activity (Mus musculus [19]) was “Active”.

In the case of COc1cc2c(cc1OC1CCCC1)C(=O)/C(=C/c1cccnc1)C2, the IC50 (Acetylcholinesterase) is reported as 8.4 µM, the IC50 [2] is reported as 4.1 µM and the inhibition [3] is reported as 56%.

COc1cc2c(cc1OCC(C)C)CC(CC1CCN(Cc3ccccc3)CC1)C2=O (stereo not given) showed an IC50 (Acetylcholinesterase) of 0.21 µM and an inhibition [1] of less than 10%.

Compound COc1cc2c(cc1OCC1CC1)CC(CC1CCNCC1)C2=O (stereo not given) has an inhibition [1] of less than 10% and an inhibition [3] of 25%.

In the case of COc1cc2c(cc1OCCN1CCCCC1)C(=O)C(Cc1ccncc1)C2 (stereo not given), the IC50 (Acetylcholinesterase) is reported as 0.07 µM and the IC50 [2] is reported as 16.4 µM.

Work on COc1ccc(CC2Cc3cc(OC)c(OCCN4CCCC4)cc3C2=O)cc1 (stereo not given) yielded an inhibition [20] of 20%.

COc1cc2c(cc1OCC(C)C)CC(Cc1ccncc1)C2=O (stereo not given) showed an IC50 (Acetylcholinesterase) of 64.3 µM, an IC50 [2] of 4.2 µM and an inhibition [3] of 15%.

For COc1cc2c(cc1OC1CCCC1)C(=O)/C(=C/c1ccccn1)C2, the inhibition [1] was 11% and the inhibition [3] was 39%.

For COc1cc2c(cc1OCC1CC1)CC(CC1CCN(Cc3ccccc3)CC1)C2=O (stereo not given), the IC50 (Acetylcholinesterase) was 0.21 µM and the inhibition [1] was less than 10%.

With COc1cc2c(cc1OCC1CC1)C(=O)C(CC1CCNCC1)C2 (stereo not given) the inhibition [1] was less than 10% and the inhibition [3] was 21%.

COc1cc2c(cc1OC1CCCC1)C(=O)C(CC1CCN(Cc3ccccc3)CC1)C2 (stereo not given) showed an IC50 (Acetylcholinesterase) of 0.058 µM and an inhibition [1] of less than 10%.

COc1cc2c(cc1OCC(C)C)CC(CC1CCNCC1)C2=O (stereo not given) showed an inhibition [1] of less than 10% and an inhibition [3] of less than 10%.

Compound COc1cc2c(cc1OCCN1CCCC1)C(=O)C(Cc1ccncc1)C2 (stereo not given) has an IC50 (Acetylcholinesterase) of 1.08 µM and an inhibition [1] of less than 10%.

COc1cc2c(cc1OCC(C)C)C(=O)C(CC1CCN(Cc3ccccc3)CC1)C2 (stereo not given) gave an IC50 (Acetylcholinesterase) of 0.5 µM and an inhibition [1] of less than 10%.

Work on COc1cc2c(cc1OC1CCCC1)C/C(=C\c1cccnc1)C2=O yielded an IC50 (Acetylcholinesterase) of 11.7 µM, an inhibition [1] of less than 10% and an inhibition [3] of 50%.

With COc1cc2c(cc1OC1CCCC1)C(=O)C(Cc1ccccn1)C2 (stereo not given) the IC50 (Acetylcholinesterase) was 38.3 µM, the IC50 [2] was 8.7 µM and the inhibition [3] was 11%.

With COc1cc2c(cc1OCC(C)C)C(=O)C(Cc1ccncc1)C2 (stereo not given) the inhibition [1] was 34% and the inhibition [3] was 14%.

In the case of COc1cc2c(cc1OC)C(=O)C(CC1CCN(Cc3ccccc3)CC1)C2 (stereo not given) [DONEPEZIL], the IC50 [2] is reported as 36 µM, the Activity (PC-12 [21]) is reported as “Active” and the Activity (BV-2 [17]) is reported as “Active”. The inhibition (Mus musculus [18]) was “Active”, the Activity (Mus musculus [19]) was “Active” and the Activity (Mus musculus [22]) was “Active”.

Compound COc1cc2c(cc1OCC1CC1)CC(Cc1ccncc1)C2=O (stereo not given) has an inhibition [1] of 31% and an inhibition [3] of 23%.

COc1cc2c(cc1OCC1CC1)C(=O)C(Cc1ccncc1)C2 (stereo not given) showed an IC50 (Acetylcholinesterase) of 35.9 µM, an IC50 [2] of 6.3 µM and an inhibition [3] of 25%.

For COc1ccc(C2CNC(=O)C2)cc1OC1CCCC1 (stereo not given), the Activity (PC-12 [21]) was “Active”.

COc1cc2c(cc1OC1CCCC1)CC(CC1CCNCC1)C2=O (stereo not given) showed an inhibition [1] of less than 10% and an inhibition [3] of 19%.
